Results on 4 compounds are retold here after patent US7511137B2, “Stereoisomers and stereoisomeric mixtures of 1-(2,4-pyrimidinediamino)-2-cyclopentanecarboxamide synthetic intermediates” (Rigel Pharmaceuticals, Inc., priority 2003, dated 2009).

Entries after “also recorded” stand apart in the source; their conditions may differ. Where two headings read alike, the source gives them in different places.

Holding throughout (format): cell-based
Assay [1] concerns a variety of tumor cell lines. In words: conventional antiproliferative assays, result in words. As for the experimental part:
Accordingly, stereoisomers of related 1-(2,4-pyrimidinediamino)-2-cyclopentanecarboxamides are expected to have analogous activity in antiproliferative assays.
(§1) The four stereoisomers isomers of (1S, 2R)-1-(2,4-pyrimidinediamino)-2-cyclopentanecarboxamide (1), (2), (3) and (4) were prepared as described in Examples 1-4. The racemic mixture of the cis compound was prepared as described herein. The IC50 values of various compounds against different tumor cell lines were determined using standard in vitro antiproliferation assays. The tumor cell lines tested were as follows: A549 (lung); H1299 (lung); DU145 (prostate); HCT116 (colon/p53wt); and mirapaca.

For assay [2], the system named is H1299 (lung). The assay is described as follows: in vitro antiproliferation assay, H1299. The following applies: Homo sapiens, NCI-H1299; H1299 lung tumor cell line. As for the experimental part: as §1
Assay [3] deals with A549 (lung). The assay is described as follows: in vitro antiproliferation assay, A549. The following applies: Homo sapiens; A549 lung tumor cell line. As for the experimental part:
as §1

In assay [4] the test system is HCT116 (colon/p53wt). In words: in vitro antiproliferation assay, HCT116. The following applies: Homo sapiens, HCT-116; HCT116 colon/p53wt tumor cell line. As for the experimental part:
as §1

Assay [5] deals with DU145 (prostate). In words: in vitro antiproliferation assay, DU145. Particulars: Homo sapiens, DU-145; DU145 prostate tumor cell line. As for the experimental part: as §1

In the case of `Cc1cc(Nc2ncc(F)c(N[C@H]3CCC[C@H]3C(N)=O)n2)ccc1N1CCN(C)CC1` [Compound 2, (1R, 2S)-1-(2,4-pyrimidinediamino)-2-cyclopentanecarboxamide], the “antiproliferative activity (in words)” value in assay [1] is on record as “antiproliferative activity; also recorded: active”. Besides, the figures for the IC50 in assay [2] and in assay [3] were under 10 µM and under 5 µM, respectively.
In the case of `Cc1cc(Nc2ncc(F)c(N[C@H]3CCC[C@@H]3C(N)=O)n2)ccc1N1CCN(C)CC1` [Compound 3, (1S, 2S)-1-(2,4-pyrimidinediamino)-2-cyclopentanecarboxamide], the “antiproliferative activity (in words)” value in assay [1] was “antiproliferative activity”; in assay [1] (listed as trans (1S, 2S)), “inactive”. For the same compound, the IC50 in assay [2] and in assay [3] was over 20 µM throughout.
For `Cc1cc(Nc2ncc(F)c(N[C@@H]3CCC[C@@H]3C(N)=O)n2)ccc1N1CCN(C)CC1` [Compound 1, (1S, 2R)-1-(2,4-pyrimidinediamino)-2-cyclopentanecarboxamide], the “antiproliferative activity (in words)” value in assay [1] is “antiproliferative activity; also recorded: active”. In addition, the half-inhibitory concentration (IC50) in assay [4] was under 0.1 µM.
For `Cc1cc(Nc2ncc(F)c(N[C@@H]3CCC[C@H]3C(N)=O)n2)ccc1N1CCN(C)CC1` [Compound 4, (1R, 2R)-1-(2,4-pyrimidinediamino)-2-cyclopentanecarboxamide], the “antiproliferative activity (in words)” value in assay [1] is on record as “active”. Besides, the half-maximal inhibitory concentration (IC50) in assay [2], in assay [4], in assay [3] and in assay [5] was under 5 µM each time.
